Results as given in patent publication US11370774B2, “Substituted benzofuran, benzopyrrole, benzothiophene, and structurally related complement inhibitors” (BioCryst Pharmaceuticals, Inc., priority 2018, dated 2022).

What follows are compounds tested against Factor D (Homo sapiens (Human), UniProt P00746) (assay: Factor D esterolytic assay (Z-Lys-SBzl substrate, DTNB, 405 nm)). Details: Z-Lys-SBzl 1.29 mM, pH 7.5, 10% DMSO, tested a minimum of three times, read-out: Measured Ki (IC50) Value for Compounds: IC50.
Chain of Factor D (P00746 26-253): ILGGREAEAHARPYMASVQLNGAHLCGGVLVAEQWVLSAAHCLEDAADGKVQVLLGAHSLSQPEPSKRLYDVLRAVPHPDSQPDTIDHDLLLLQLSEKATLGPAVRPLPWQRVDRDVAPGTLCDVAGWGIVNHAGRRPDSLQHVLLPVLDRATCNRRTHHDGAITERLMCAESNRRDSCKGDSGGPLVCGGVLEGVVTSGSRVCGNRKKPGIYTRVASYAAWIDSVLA
Format: biochemical
Method in brief: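 Thioester hydrolysis (Z-Lys-SBzl, 1.29 mM) by human Factor D ([…]) detected through DTNB color at 405 nm over 600 sec, minus 690 nm background. Buffer: 100 mM HEPES pH 7.5, 500 mM NaCl, 10% DMSO; optional room-temperature preincubation before substrate. IC50 derived from percent rate inhibition; at least three runs.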

| IC50 | SMILES |
| --- | --- |
| < 1 µM | NCc1cccc(-c2cc(COc3cc(C4CCCC4)ccc3CC(=O)O)cc3ccoc23)c1 [Compound 395c, 2-(2-((7-(3-(aminomethyl)phenyl)benzofuran-5-yl)methoxy)-4-cyclopentylphenyl)acetic acid] |
| < 1 µM | NCc1cccc(-c2cc(COc3ccccc3CC(=O)O)cc3cc(CNC(=O)c4ccccc4)oc23)c1 [Compound 294f, 2-(2-((7-(3-(aminomethyl)phenyl)-2-(benzamidomethyl)benzofuran-5-yl)methoxy)phenyl)acetic acid] |
| < 1 µM | COc1ccc(CC(=O)O)c(NC(=O)c2nc(-c3cccc(CN)c3)nn3cccc23)c1 [Compound 42d, 2-(2-(2-(3-(aminomethyl)phenyl)pyrrolo[2,1-f][1,2,4]triazine-4-carboxamido)-4-methoxyphenyl)acetic acid] |
| < 1 µM | NCc1cccc(-c2cc(COc3ccccc3CC(=O)O)cc3c2cnn3CC2CC2)c1F [Compound 127b, 2-(2-((4-(3-(aminomethyl)-2-fluorophenyl)-1-(cyclopropylmethyl)-1H-indazol-6-yl)methoxy)phenyl)acetic acid] |
| 1 to 10 µM | NCc1ccc(F)c(-c2nc(C(=O)Nc3ccccc3CC(=O)O)c3cccn3n2)c1 [Compound 47f, 2-(2-(2-(5-(aminomethyl)-2-fluorophenyl)pyrrolo[2,1-f][1,2,4]triazine-4-carboxamido)phenyl)acetic acid] |
| < 1 µM | C[C@@H](N)c1cccc(-c2cc(COc3ccccc3CC(=O)O)cc3ccoc23)c1 [Compound 78c, (R)-2-(2-((7-(3-(1-aminoethyl)phenyl)benzofuran-5-yl)methoxy)phenyl)acetic acid] |
| < 1 µM | NCc1cccc(-c2cc(C(=O)Nc3ccccc3CC(=O)O)cc3cc(C4CC4)oc23)c1 [Compound 62c, 2-(2-(7-(3-(aminomethyl)phenyl)-2-cyclopropylbenzofuran-5-carboxamido)phenyl)acetic acid] |
| < 1 µM | COCc1cc2cc(COc3ccc(F)cc3CC(=O)O)cc(-c3cccc(CN)c3F)c2o1 [Compound 463b, 2-(2-((7-(3-(aminomethyl)-2-fluorophenyl)-2-(methoxymethyl)benzofuran-5-yl)methoxy)-5-fluorophenyl)acetic acid] |
| < 1 µM | N=C(N)c1cccc(-c2cc(COc3ccccc3CC(=O)O)cc3ccoc23)c1 [Compound 85c, 2-(2-((7-(3-carbamimidoylphenyl)benzofuran-5-yl)methoxy)phenyl)acetic acid] |
| 1 to 10 µM | NCc1cccc(-c2cc(OC[C@@H]3CCC[C@H]3C(=O)NCc3cccc(Cl)c3F)cc3ccoc23)c1 (relative stereo) [Compound 340e, (trans)-2-(((7-(3-(aminomethyl)phenyl)benzofuran-5-yl)oxy)methyl)-N-(3-chloro-2-fluorobenzyl)cyclopentanecarboxamide] |
| < 1 µM | NCc1cccc(-c2cc(COc3ccccc3CC(=O)O)cc3[nH]c(C(F)(F)F)cc23)c1 [Compound 332e, 2-(2-((4-(3-(aminomethyl)phenyl)-2-(trifluoromethyl)-1H-indol-6-yl)methoxy)phenyl)acetic acid] |
| < 1 µM | Cc1cc2cc(COc3ccccc3CC(=O)O)cc(-c3cccc(CN)c3)c2o1 [Compound 84f, 2-(2-((7-(3-(aminomethyl)phenyl)-2-methylbenzofuran-5-yl)methoxy)phenyl)acetic acid] |
| < 1 µM | NCc1cccc(-c2cc(C(=O)Nc3ccccc3CC(=O)O)cc3c2CCC3)c1 [Compound 160e, 2-(2-(7-(3-(aminomethyl)phenyl)-2,3-dihydro-1H-indene-5-carboxamido)phenyl)acetic acid] |
| < 1 µM | NCc1cccc(-c2cc(COc3ccccc3CC(=O)O)cc3c2ccn3C(F)(F)F)c1F [Compound 518b, 2-(2-((4-(3-(aminomethyl)-2-fluorophenyl)-1-(trifluoromethyl)-1H-indol-6-yl)methoxy)phenyl)acetic acid] |
| 1 to 10 µM | Cc1ccc(S(=O)(=O)n2ccc3cc(COc4ccccc4CC(=O)O)cc(-c4cccc(CN)c4)c32)cc1 [Compound 146g, 2-(2-((7-(3-(aminomethyl)phenyl)-1-tosyl-1H-indol-5-yl)methoxy)phenyl)acetic acid] |
| < 1 µM | NCc1cccc(-c2cc(COc3ccccc3CC(=O)O)cc3occc23)c1F [Compound 122b, 2-(2-((4-(3-(aminomethyl)-2-fluorophenyl)benzofuran-6-yl)methoxy)phenyl)acetic acid] |
| < 1 µM | N[C@H](CO)c1cccc(-c2cc(COc3ccccc3CC(=O)O)cc3ccoc23)c1 [Compound 59d, (S)-2-(2-((7-(3-(1-amino-2-hydroxyethyl)phenyl)benzofuran-5-yl)methoxy)phenyl)acetic acid] |
| < 1 µM | NCc1cccc(-c2cc(COc3ccccc3CC(=O)O)cc3cc(CO)oc23)c1 [Compound 76f, 2-(2-((7-(3-(aminomethyl)phenyl)-2-(hydroxymethyl)benzofuran-5-yl)methoxy)phenyl)acetic acid] |

| IC50 | SMILES |
| --- | --- |
| < 1 µM | COc1ccc(CC(=O)O)c(OCc2cc(-c3cccc(CN)c3)c3occc3c2F)c1 [Compound 384c, 2-(2-((7-(3-(aminomethyl)phenyl)-4-fluorobenzofuran-5-yl)methoxy)-4-methoxyphenyl)acetic acid] |
| < 1 µM | CC(C)S(=O)(=O)n1ccc2c(-c3cccc(CN)c3F)cc(COc3ccccc3CC(=O)O)cc21 [Compound 229b, 2-(2-((4-(3-(aminomethyl)-2-fluorophenyl)-1-(isopropylsulfonyl)-1H-indol-6-yl)methoxy)phenyl)acetic acid] |
| < 1 µM | NCc1cccc(-c2cc(COc3ccccc3CC(=O)O)cc3cc(CNC(=O)Cc4ccccc4)oc23)c1 [Compound 296c, 2-(2-((7-(3-(aminomethyl)phenyl)-2-((2-phenylacetamido)methyl)benzofuran-5-yl)methoxy)phenyl)acetic acid] |
| < 1 µM | NCc1cccc(-c2cc(COc3c(CC(=O)O)ccc4ccoc34)cc3ccoc23)c1 [Compound 392g, 2-(7-((7-(3-(aminomethyl)phenyl)benzofuran-5-yl)methoxy)benzofuran-6-yl)acetic acid] |
| > 10 µM | CCOC(=O)Cc1ccccc1NC(=O)c1cc(-c2cccc(CN)c2)c2occc2c1 [Compound 15c, ethyl 2-(2-(7-(3-(aminomethyl)phenyl)benzofuran-5-carboxamido)phenyl)acetate] |
| < 1 µM | NCc1cccc(-c2nc(C(=O)Nc3cscc3CC(=O)O)c3cccn3n2)c1F [Compound 142d, 2-(4-(2-(3-(aminomethyl)-2-fluorophenyl)pyrrolo[2,1-f][1,2,4]triazine-4-carboxamido)thiophen-3-yl)acetic acid] |
| < 1 µM | Nc1c[nH]c2c(-c3cc(COc4ccccc4CC(=O)O)cc4ccoc34)cccc12 [Compound 341e, 2-(2-((7-(3-amino-1H-indol-7-yl)benzofuran-5-yl)methoxy)phenyl)acetic acid] |
| < 1 µM | COc1cccc(CC(=O)O)c1OCc1cc(-c2ccnc(CN)c2)c2occc2c1 [Compound 512d, 2-(2-((7-(2-(aminomethyl)pyridin-4-yl)benzofuran-5-yl)methoxy)-3-methoxyphenyl)acetic acid] |
| < 1 µM | NCc1cc(-c2cc(COc3c(F)cccc3CC(=O)O)cc3ccoc23)ccn1 [Compound 504c, 2-(2-((7-(2-(aminomethyl)pyridin-4-yl)benzofuran-5-yl)methoxy)-3-fluorophenyl)acetic acid] |
| < 1 µM | NCc1cccc(-c2cc(COc3ccc(CN)cc3CC(=O)O)cc3ccoc23)c1 [Compound 331c, 2-(5-(aminomethyl)-2-((7-(3-(aminomethyl)phenyl)benzofuran-5-yl)methoxy)phenyl)acetic acid] |
| < 1 µM | NCc1cccc(-c2cc(COc3ccccc3CC(=O)O)cc3[nH]ncc23)c1F [Compound 124g, 2-(2-((4-(3-(aminomethyl)-2-fluorophenyl)-1H-indazol-6-yl)methoxy)phenyl)acetic acid] |
| < 1 µM | NCc1cc(-c2cc(COc3ccccc3CC(=O)O)nc3ccoc23)ccn1 [Compound 168c, 2-(2-((7-(2-(aminomethyl)pyridin-4-yl)furo[3,2-b]pyridin-5-yl)methoxy)phenyl)acetic acid] |
| < 1 µM | CC(=O)NC(C(=O)O)c1ccccc1OCc1cc(-c2cccc(CN)c2)c2occc2c1 (stereo not drawn) [Compound 222f, 2-acetamido-2-(2-((7-(3-(aminomethyl)phenyl)benzofuran-5-yl)methoxy)phenyl)acetic acid] |
| > 10 µM | NCc1cccc(-c2cc(COc3ccccc3Cc3nn[nH]n3)cc3ccoc23)c1 [Compound 311b, (3-(5-((2-((2H-tetrazol-5-yl)methyl)phenoxy)methyl)benzofuran-7-yl)phenyl)methanamine] |
| < 1 µM | CC(C)c1ccc(CC(=O)O)c(OCc2cc(-c3cccc(CN)c3)c3occc3c2)c1 [Compound 312b, 2-(2-((7-(3-(aminomethyl)phenyl)benzofuran-5-yl)methoxy)-4-isopropylphenyl)acetic acid] |
| < 1 µM | Cc1cc(CC(=O)O)c(OCc2cc(-c3ccnc(CN)c3)c3occc3c2)cc1C [Compound 428c, 2-(2-((7-(2-(aminomethyl)pyridin-4-yl)benzofuran-5-yl)methoxy)-4,5-dimethylphenyl)acetic acid] |
| < 1 µM | CC(=O)Nc1ccc(CC(=O)O)c(OCc2cc(-c3ccnc(CN)c3)c3occc3c2)c1 [Compound 437c, 2-(4-acetamido-2-((7-(2-(aminomethyl)pyridin-4-yl)benzofuran-5-yl)methoxy)phenyl)acetic acid] |

| SMILES | IC50 |
| --- | --- |
| NCc1ccc(CC(=O)O)c(OCc2cc(-c3cccc(C(N)CF)c3)c3occc3c2)c1 (single isomer, unassigned; (+)) [Compound 410d, (+)-2-(2-((7-(3-(1-amino-2-fluoroethyl)phenyl)benzofuran-5-yl)methoxy)-4-(aminomethyl)phenyl)acetic acid] | < 1 µM |
